Tests used:
Assay in all cases: relative viability (nuclei count vs DMSO), 5 days (fraction); higher = more cells survive
FH535 + OSI-027 = compound: CC1=C(C=CC(=C1)[N+](=O)[O-])NS(=O)(=O)C2=C(C=CC(=C2)Cl)Cl [FH535] + COc1cccc2cc(-c3nc([C@H]4CC[C@H](C(=O)O)CC4)n4ncnc(N)c34)[nH]c12 [OSI-027] (partner 0.5 µM)
How it was run: (§1)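 Medians of duplicate plates are given as relative viability. That measure is the nuclei count in treated wells divided by the count in vehicle wells. Counts were taken on 4× images of lung cancer cell lines in 1536-well plates, 5 days after pin-tool dosing the day after seeding with one drug alone or a fixed anchor-drug dose plus five library-drug doses (not always all listed) in √10 steps.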

FH535 + Phenformin = compound: CC1=C(C=CC(=C1)[N+](=O)[O-])NS(=O)(=O)C2=C(C=CC(=C2)Cl)Cl [FH535] + N=C(N)NC(=N)NCCc1ccccc1 [Phenformin] (partner 250 µM)
How it was run: as §1

FH535 + Foretinib = compound: CC1=C(C=CC(=C1)[N+](=O)[O-])NS(=O)(=O)C2=C(C=CC(=C2)Cl)Cl [FH535] + COc1cc2c(Oc3ccc(NC(=O)C4(C(=O)Nc5ccc(F)cc5)CC4)cc3F)ccnc2cc1OCCCN1CCOCC1 [Foretinib] (partner 0.25 µM)
How it was run: as §1

FH535 + Alpelisib = compound: CC1=C(C=CC(=C1)[N+](=O)[O-])NS(=O)(=O)C2=C(C=CC(=C2)Cl)Cl [FH535] + Cc1nc(NC(=O)N2CCC[C@H]2C(N)=O)sc1-c1ccnc(C(C)(C)C(F)(F)F)c1 [Alpelisib] (partner 2 µM)
How it was run: as §1

FH535 + Crizotinib = compound: CC1=C(C=CC(=C1)[N+](=O)[O-])NS(=O)(=O)C2=C(C=CC(=C2)Cl)Cl [FH535] + C[C@@H](Oc1cc(-c2cnn(C3CCNCC3)c2)cnc1N)c1c(Cl)ccc(F)c1Cl [Crizotinib] (partner 1 µM)
How it was run: as §1

| Cell Line | relative viability (FH535 + OSI-027; first compound 0.04 µM) | relative viability (FH535 + OSI-027; first compound 0.1265 µM) | relative viability (FH535 + OSI-027; first compound 0.4 µM) | relative viability (FH535 + OSI-027; first compound 1.265 µM) | relative viability (FH535 + Phenformin; first compound 0.04 µM) | relative viability (FH535 + Phenformin; first compound 0.1265 µM) | relative viability (FH535 + Phenformin; first compound 0.4 µM) | relative viability (FH535 + Phenformin; first compound 1.265 µM) | relative viability (FH535 + Foretinib; first compound 0.04 µM) | relative viability (FH535 + Foretinib; first compound 0.1265 µM) | relative viability (FH535 + Foretinib; first compound 0.4 µM) | relative viability (FH535 + Foretinib; first compound 1.265 µM) | relative viability (FH535 + Alpelisib; first compound 0.04 µM) | relative viability (FH535 + Alpelisib; first compound 0.1265 µM) | relative viability (FH535 + Alpelisib; first compound 0.4 µM) | relative viability (FH535 + Alpelisib; first compound 1.265 µM) | relative viability (FH535 + Crizotinib; first compound 0.04 µM) | relative viability (FH535 + Crizotinib; first compound 0.1265 µM) | relative viability (FH535 + Crizotinib; first compound 0.4 µM) | relative viability (FH535 + Crizotinib; first compound 1.265 µM) |
| --- | --- | --- | --- | --- | --- | --- | --- | --- | --- | --- | --- | --- | --- | --- | --- | --- | --- | --- | --- | --- |
| HCC-78 | 0.374 | 0.334 | 0.357 | 0.38 | 0.626 | 0.783 | 0.63 | 0.592 | 0.565 | 0.561 | 0.608 | 0.51 | 0.345 | 0.396 | 0.361 | 0.302 | 0.3 | 0.373 | 0.342 | 0.311 |
| HCC-366 | 0.695 | 0.862 | 1.09 | 0.756 | 0.607 | 0.522 | 0.48 | 0.41 | 0.648 | 1.06 | 0.958 | 0.516 | 0.35 | 0.485 | 0.478 | 0.349 | 0.392 | 0.614 | 0.594 | 0.354 |
| HCC-827 | 0.798 | 0.821 | 0.754 | 0.664 | 0.407 | 0.387 | 0.383 | 0.313 | 1.03 | 1.07 | 0.975 | 0.587 | 0.954 | 0.972 | 0.926 | 0.446 | 0.924 | 0.872 | 0.904 | 0.564 |
| HOP-62 | 0.77 | 0.779 | 0.678 | 0.713 | 0.682 | 0.668 | 0.552 | 0.401 | 1.06 | 1.04 | 1.03 | 0.933 | 0.931 | 0.948 | 0.778 | 0.694 | 0.953 | 1.01 | 0.69 | 0.988 |
| LC-2-ad | 0.66 | 0.799 | 0.796 | 0.577 | 0.482 | 0.58 | 0.425 | 0.368 | 0.807 | 0.981 | 0.872 | 0.853 | 0.489 | 0.963 | 0.898 | 0.618 | 0.462 | 0.477 | 0.458 | 0.452 |
| LCLC-97TM1 | 0.431 | 0.49 | 0.441 | 0.395 | 0.409 | 0.37 | 0.334 | 0.313 | 0.854 | 0.949 | 1.03 | 0.679 |  | 0.225 | 0.224 | 0.181 |  | 0.583 | 0.322 | 0.296 |
| LCLC-103H | 0.448 | 0.383 | 0.341 | 0.42 | 0.326 | 0.286 | 0.255 | 0.262 | 0.789 | 0.755 | 0.776 | 0.551 | 0.906 | 0.935 | 1.01 | 0.927 | 1.04 | 1.11 | 1.02 | 0.844 |
| LK-2 | 0.181 | 0.208 | 0.2 | 0.155 | 0.35 | 0.521 | 0.495 | 0.211 | 1.23 | 1.33 | 1.39 | 1.11 | 0.915 | 1.06 | 1.09 | 1.01 | 0.224 | 0.236 | 0.252 | 0.226 |
| LOU-NH91 | 0.708 | 0.815 | 0.557 | 0.397 | 0.554 | 0.471 | 0.424 | 0.392 | 0.99 | 0.952 | 0.91 | 0.474 | 0.714 | 0.793 | 0.679 | 0.409 | 0.622 | 0.721 | 0.698 | 0.477 |
| LU99A | 0.241 | 0.304 | 0.284 | 0.279 | 0.55 | 0.856 | 0.764 | 0.729 | 0.706 | 0.865 | 0.736 | 0.761 | 0.457 | 0.498 | 0.534 | 0.522 | 0.508 | 0.598 | 0.604 | 0.584 |
| LXF-289 | 0.735 | 0.809 | 0.688 | 0.69 | 0.474 | 0.486 | 0.472 | 0.384 | 0.975 | 0.983 | 0.862 | 0.684 | 0.958 | 0.98 | 0.91 | 0.794 | 0.795 | 0.832 | 0.74 | 0.567 |
| NCI-H522 | 0.7 | 0.767 | 0.734 | 0.636 | 0.591 | 0.575 | 0.621 | 0.62 |  |  |  |  |  |  |  |  |  |  |  |  |
| NCI-H1395 | 0.581 | 0.613 | 0.61 | 0.476 | 0.443 | 0.448 | 0.396 | 0.348 | 0.952 | 0.967 | 0.868 | 0.831 | 0.847 | 1.09 | 1.1 | 0.84 |  |  |  |  |
| NCI-H1650 | 0.558 | 0.591 | 0.456 | 0.523 | 0.365 | 0.405 | 0.33 | 0.201 | 0.966 | 1.28 | 1.01 | 0.825 |  |  |  |  | 1.01 | 1.09 | 1.15 | 0.839 |
| NCI-H1703 |  |  |  |  |  |  |  |  | 0.416 |  | 0.324 | 0.344 | 0.403 | 0.362 | 0.327 | 0.269 | 0.922 | 0.63 | 0.589 | 0.408 |
| NCI-H1792 | 0.636 | 0.661 | 0.667 | 0.524 | 0.216 | 0.358 | 0.267 | 0.235 |  |  |  |  | 0.64 | 0.73 | 0.664 | 0.53 | 0.967 | 0.963 | 0.907 | 0.632 |
| NCI-H1793 | 0.295 | 0.225 | 0.306 | 0.244 | 0.39 | 0.256 | 0.278 | 0.211 | 0.347 | 0.775 | 0.798 | 0.458 | 0.597 | 0.721 | 0.618 | 0.541 |  |  |  |  |
| NCI-H2342 | 0.516 | 0.593 | 0.641 | 0.567 | 0.559 | 0.602 | 0.611 | 0.437 | 1.19 | 1.09 | 1.04 | 0.792 |  |  |  |  |  |  |  |  |

From the supplement of paper PMC10307832
